Columns and labels:
human wild type FGFR3 = human wild type FGFR3 (Homo sapiens (Human), UniProt P22607); assay: FGFR3 pERK Cell Assay; assay type: cell-based; conditions: HEK-293 cells, 1 hour compound, 100 ng/ml human FGF-acidic; maximum concentration 5 μM
Experimental: (§1) HEK-293 cells transfected with dox-inducible human wild type FGFR3 (SEQ ID NO: 5) were plated in a collagen or poly-D-lysine coated 96 well flat bottom plates at 4×10^5 cells/well in complete DMEM medium containing 10% FBS and 1 μg/ml doxycycline and allowed to attach for 24 h at 37° C., 5% CO2. Cells were treated with compound using 1:3 serial dilutions with a maximum final concentration of 5 μM. Compound was incubated on cells for 1 hour at 37° C., 5% CO2. Cells were then stimulated with a final concentration of 100 ng/ml human FGF-acidic (R&D Systems Cat number 232-FA/CF) for 5 minutes at 37° C., 5% CO2. Medium was removed, and cells were lysed with lysis buffer containing phosphatase and protease inhibitors. Phospho ERK1/2 was measured using the Meso Scale Discovery sandwich assay (Meso Scale Discovery cat. no. K151DWD). The assay captures phospho ERK1/2 and detects with a sulfo-tagged total ERK1/2 antibody. The chemiluminescent signal was read on the Sector Imager Plate reader. 100 POC was determined using no test compounds and 0 POC was determined using a control compound. The POC values were fit to a 4-parameter logistic curve as a function of the concentration of the compound, and the IC50 value is the point where the curve crosses 50 POC.

FGFR3 [1] = target: T1, FGFR3 (Homo sapiens (Human), UniProt P22607); assay: LC/MS FGFR3 kobs assay (covalent modification); assay type: biochemical; conditions: 500 nM FGFR3, 3 μM compound
Experimental: (§2) The LC/MS FGFR1 and FGFR3 kobs assays were conducted as follows. 500 nM FGFR1 (Array BioPharma construct p1702; SEQ ID NO: 1, amino acids 458-765) or FGFR3 (Array BioPharma construct p1700; SEQ ID NO: 5, amino acids 449-759) were incubated with 3 μM compound in 25 mM HEPES (4-(2-hydroxyethyl)-1-piperazineethanesulfonic acid), pH 7.4, 5 mM MgCl2, 150 mM NaCl, 0.5 mM TCEP (tris(2-carboxyethyl) phosphine), and 2% DMSO in a total volume of 20 μL. At each time point, the reaction was quenched with 20 μL of 0.4% formic acid. The extent of protein modification by each compound was determined by LC/MS on an Agilent Technologies 6520 Q-TOF LC/MS. Protein signals were then automatically deconvoluted using Agilent Masshunter software. Deconvoluted mass signals were exported to Tibco Spotfire data analysis program for further processing and normalization.
(§3) Data analysis included five steps. First, the signals for the “DMSO Controls” were analyzed to determine the percent of signal associated with unmodified FGFR1 or FGFR3 at each time point. Next, the percent of the signal associated with the covalent modification was determined. Third, the average nonmodified “DMSO Control” signal was used to normalize the modified protein signals at each time point. The percent of unmodified protein was fit to an exponential decay model where A0 is the Percent Unmodified at the start of the reaction, and kobs is the observed rate constant over the time period.
Target sequence in this assay (P22607 449-759): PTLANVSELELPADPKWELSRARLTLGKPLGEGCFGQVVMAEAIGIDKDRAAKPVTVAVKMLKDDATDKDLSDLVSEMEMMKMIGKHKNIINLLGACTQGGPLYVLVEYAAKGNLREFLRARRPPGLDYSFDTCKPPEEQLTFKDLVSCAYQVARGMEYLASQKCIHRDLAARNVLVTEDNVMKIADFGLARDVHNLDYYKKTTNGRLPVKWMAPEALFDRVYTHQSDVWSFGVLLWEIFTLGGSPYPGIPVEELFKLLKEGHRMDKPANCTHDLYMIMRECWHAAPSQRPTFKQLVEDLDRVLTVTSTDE

FGFR3 [2] = target: T1, FGFR3; assay: FGFR Enzyme Activity Assay (LanthaScreen TR-FRET), FGFR3; assay type: biochemical; conditions: 25 μM ATP, 10 minute incubation; read-out: FGFR3 Enz FRET IC50
Experimental: FGFR3 kinase activity was measured by the Invitrogen LanthaScreen™ Assay technology which directly measures the amount of substrate phosphorylation by TR-FRET using a flourescently-labeled peptide and Europium-labeled antibody. Briefly, 750 pM N-terminal GST-HIS6 fusion protein with a 3C cleavage site recombinant human FGFR3 (amino acids R397-T806) (ProQinase Cat. No. 1068-0000-1) was incubated with 100 nM Alexa Fluor® 647-Poly-GT Peptide Substrate (Life Technologies Cat. No. PV5836) and 25 μM ATP along with test compound in a buffer consisting of 250 mM HEPES, 25 mM MgCl2, 0.05% TritonX-100, pH 7.5, and 2% DMSO. Compounds were typically prepared in a threefold serial dilution in DMSO and added to the assay to give the appropriate final concentration. After a 10 minute incubation at 22° C., an equal volume of 2 nM LanthaScreen® Eu-PY20 Antibody (Life Technologies Cat. No. PV5691) and 10 mM EDTA were added to quench the kinase reaction and start the detection reaction. After an additional 60 minute incubation at 22° C., the reaction was measured using a PerkinElmer EnVision multimode plate reader via TR-FRET dual wavelength detection, and the percent of control (POC) calculated using a ratiometric emission factor. 100 POC was determined using no test compounds and 0 POC was determined using no enzyme. The POC values were fit to a 4-parameter logistic curve as a function of the concentration of the compound, and the IC50 value is the point where the curve crosses 50 POC.
Target sequence in this assay (P22607 397-806): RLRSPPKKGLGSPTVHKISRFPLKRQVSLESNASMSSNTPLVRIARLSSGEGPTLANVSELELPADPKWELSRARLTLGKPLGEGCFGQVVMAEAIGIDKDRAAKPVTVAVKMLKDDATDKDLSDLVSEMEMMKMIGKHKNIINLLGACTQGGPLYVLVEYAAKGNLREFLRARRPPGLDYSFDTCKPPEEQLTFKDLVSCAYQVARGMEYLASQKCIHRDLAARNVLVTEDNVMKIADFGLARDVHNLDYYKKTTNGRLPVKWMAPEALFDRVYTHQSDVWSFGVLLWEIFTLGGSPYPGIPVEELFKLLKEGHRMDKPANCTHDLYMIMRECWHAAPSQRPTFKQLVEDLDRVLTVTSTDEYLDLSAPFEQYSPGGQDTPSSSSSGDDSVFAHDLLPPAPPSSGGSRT

human wild type FGFR1 = human wild type FGFR1 (Homo sapiens (Human), UniProt P11362); assay: FGFR1 pERK Cell Assay; assay type: cell-based; conditions: HEK-293 cells, 1 hour compound, 100 ng/ml human FGF-acidic; maximum concentration 5 μM
Experimental: as §1, with “doxycycline(dox)-inducible” for “dox-inducible”, “FGFR1” for “FGFR3”, “1)” for “5)”, “Dulbecco's Modified Eagle Medium (DMEM)” for “DMEM medium”, “compound” for “compounds”

FGFR1 = FGFR1 (Homo sapiens (Human), UniProt P11362); assay: LC/MS FGFR1 kobs assay (covalent modification); assay type: biochemical; conditions: 500 nM FGFR1, 3 μM compound
Experimental: as §2, §3

Chain of FGFR1 (P11362 458-765): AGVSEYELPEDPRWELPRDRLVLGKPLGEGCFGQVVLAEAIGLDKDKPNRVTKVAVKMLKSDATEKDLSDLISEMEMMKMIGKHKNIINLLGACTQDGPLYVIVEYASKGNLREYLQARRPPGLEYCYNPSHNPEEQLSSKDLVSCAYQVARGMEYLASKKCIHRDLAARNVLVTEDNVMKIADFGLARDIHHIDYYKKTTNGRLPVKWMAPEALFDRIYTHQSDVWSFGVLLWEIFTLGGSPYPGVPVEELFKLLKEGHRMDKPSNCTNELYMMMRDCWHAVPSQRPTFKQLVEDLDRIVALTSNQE
Chain of human wild type FGFR1 (P11362 22-822): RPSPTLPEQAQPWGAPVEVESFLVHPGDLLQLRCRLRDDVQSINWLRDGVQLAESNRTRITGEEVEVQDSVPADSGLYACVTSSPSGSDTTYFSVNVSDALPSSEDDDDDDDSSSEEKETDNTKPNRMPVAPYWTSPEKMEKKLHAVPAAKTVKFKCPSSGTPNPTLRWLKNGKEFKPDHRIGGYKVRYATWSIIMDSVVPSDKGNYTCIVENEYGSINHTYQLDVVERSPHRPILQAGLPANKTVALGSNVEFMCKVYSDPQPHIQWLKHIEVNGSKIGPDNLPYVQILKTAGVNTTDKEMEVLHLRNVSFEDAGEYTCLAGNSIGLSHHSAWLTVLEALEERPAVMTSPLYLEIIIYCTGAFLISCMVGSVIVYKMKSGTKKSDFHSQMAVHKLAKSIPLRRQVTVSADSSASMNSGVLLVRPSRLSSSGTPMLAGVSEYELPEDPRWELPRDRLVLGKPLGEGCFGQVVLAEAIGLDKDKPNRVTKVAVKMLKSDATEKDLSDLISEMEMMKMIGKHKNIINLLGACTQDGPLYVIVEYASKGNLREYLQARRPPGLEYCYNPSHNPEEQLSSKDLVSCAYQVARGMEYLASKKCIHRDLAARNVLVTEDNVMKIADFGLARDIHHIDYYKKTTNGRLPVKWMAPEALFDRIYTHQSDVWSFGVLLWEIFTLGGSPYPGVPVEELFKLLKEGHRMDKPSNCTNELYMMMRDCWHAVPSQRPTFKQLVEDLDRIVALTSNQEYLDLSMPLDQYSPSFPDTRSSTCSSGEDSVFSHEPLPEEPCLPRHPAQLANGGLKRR
Chain of human wild type FGFR3 (P22607 23-806): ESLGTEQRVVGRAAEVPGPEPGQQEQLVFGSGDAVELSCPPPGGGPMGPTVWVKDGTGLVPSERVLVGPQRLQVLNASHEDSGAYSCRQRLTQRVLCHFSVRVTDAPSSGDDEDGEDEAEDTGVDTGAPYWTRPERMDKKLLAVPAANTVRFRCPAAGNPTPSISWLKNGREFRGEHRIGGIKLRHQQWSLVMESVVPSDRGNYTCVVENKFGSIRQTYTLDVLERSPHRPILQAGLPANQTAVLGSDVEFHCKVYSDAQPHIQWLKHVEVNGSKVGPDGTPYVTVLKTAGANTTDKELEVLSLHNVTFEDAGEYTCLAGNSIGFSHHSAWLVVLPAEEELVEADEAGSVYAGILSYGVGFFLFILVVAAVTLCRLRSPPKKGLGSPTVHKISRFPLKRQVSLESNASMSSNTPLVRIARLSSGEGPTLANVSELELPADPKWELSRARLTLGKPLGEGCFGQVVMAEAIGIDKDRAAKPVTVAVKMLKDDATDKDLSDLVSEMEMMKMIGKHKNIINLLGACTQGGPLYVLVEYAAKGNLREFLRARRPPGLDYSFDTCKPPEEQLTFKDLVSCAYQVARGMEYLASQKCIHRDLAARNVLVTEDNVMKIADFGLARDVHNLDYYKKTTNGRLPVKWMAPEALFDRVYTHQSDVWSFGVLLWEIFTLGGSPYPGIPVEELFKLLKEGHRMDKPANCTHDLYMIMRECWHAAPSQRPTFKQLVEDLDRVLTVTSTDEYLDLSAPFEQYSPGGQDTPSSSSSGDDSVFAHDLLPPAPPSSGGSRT

IC50 (human wild type FGFR3) [nM] | FGFR3 Enz kobs (FGFR3 [1]) [min⁻¹] | IC50 (FGFR3 [2]) [nM] | IC50 (human wild type FGFR1) [nM] | FGFR1 Enz kobs (FGFR1) [min⁻¹] | SMILES
24 | 0.01591 | 26 | 225 | 0.00172 | C=CC(=O)N1CC(CN2CCC(n3cc(-c4cnc5ccc(Nc6cc(OC)cc(OC)c6)cc5n4)cn3)CC2)C1 [Example 30, 1-(3-((4-(4-(7-((3,5-dimethoxyphenyl)amino)quinoxalin-2-yl)-1H-pyrazol-1-yl)piperidin-1-yl)methyl)azetidin-1-yl)prop-2-en-1-one]
12 | 0.00987 | 2 | 128 | 0.00264 | C=CC(=O)N1CC(O)(C(=O)N2CCC(n3cc(-c4cnc5ccc(N(C)c6cc(OC)cc(OC)c6)cc5n4)cn3)CC2)C1 [Example 27, 1-(3-(4-(4-(7-((3,5-dimethoxyphenyl)(methyl)amino)quinoxalin-2-yl)-1H-pyrazol-1-yl)piperidine-1-carbonyl)-3-hydroxyazetidin-1-yl)prop-2-en-1-one]
8 | 0.078 | 6 | 34 | 0.01569 | C#CCN(c1cc(OC)cc(OC)c1)c1ccc2ncc(-c3cnn(C4CCN(C(=O)C5(F)CN(C(=O)/C=C/CN(C)C)C5)CC4)c3)nc2c1 [Example 28, (E)-1-(3-(4-(4-(7-((3,5-dimethoxyphenyl)(prop-2-yn-1-yl)amino)quinoxalin-2-yl)-1H-pyrazol-1-yl)piperidine-1-carbonyl)-3-fluoroazetidin-1-yl)-4-(dimethylamino)but-2-en-1-one]
699 | 0.07588 | 972 | 1940 | 0.00386 | COc1cc(Nc2ccc3ncc(-c4c(C)nn(C5CCN(C(=O)C6(F)CN(C(=O)/C=C/CN(C)C)C6)CC5)c4C)nc3c2)cc(OC)c1 [Example 23, (E)-1-(3-(4-(4-(7-((3,5-dimethoxyphenyl)amino)-quinoxalin-2-yl)-3,5-dimethyl-1H-pyrazol-1-yl)piperidine-1-carbonyl)-3-fluoroazetidin-1-yl)-4-(dimethylamino)but-2-en-1-one]
390 | 0.00664 | 37 | 1890 | 0.00106 | C=CC(=O)N1CC(C(=O)N2CC[C@@H](n3cc(-c4cnc5ccc(Nc6cc(OC)cc(OC)c6)cc5n4)cn3)C2)C1 [Example 21, (R)-1-(3-(3-(4-(7-((3,5-dimethoxyphenyl)amino)-quinoxalin-2-yl)-1H-pyrazol-1-yl)pyrrolidine-1-carbonyl)azetidin-1-yl)prop-2-en-1-one]
 | 0.00369 | 479 |  | 0.00404 | C=CC(=O)N1CC(C(=O)N2CCN(c3cccc(-c4cnc5ccc(Nc6cc(OC)cc(OC)c6)cc5n4)c3)CC2)C1 [Example 25, 1-(3-(4-(3-(7-((3,5-dimethoxyphenyl)amino)-quinoxalin-2-yl)phenyl)-piperazine-1-carbonyl)-azetidin-1-yl)prop-2-en-1-one]

The remaining lines, values behind:

SMILES | IC50 (human wild type FGFR3) [nM] | FGFR3 Enz kobs (FGFR3 [1]) [min⁻¹] | IC50 (FGFR3 [2]) [nM] | IC50 (human wild type FGFR1) [nM] | FGFR1 Enz kobs (FGFR1) [min⁻¹]
COc1cc(Nc2ccc3ncc(-c4cnn(C5CCN(C(=O)C6CN(C(=O)/C=C/CN(C)C)C6)CC5)c4)nc3c2)cc(OC)c1 [Example 9, (E)-1-(3-(4-(4-(7-((3,5-dimethoxyphenyl)amino)-quinoxalin-2-yl)-1H-pyrazol-1-yl)piperidine-1-carbonyl)azetidin-1-yl)-4-(dimethylamino)but-2-en-1-one] | 184 | 0.02139 | 23 | 2230 | 0.00278
COc1cc(Nc2ccc3ncc(-c4cnn([C@@H]5CCN(C(=O)C6(F)CN(C(=O)/C=C/CN(C)C)C6)C5)c4)nc3c2)cc(OC)c1 [Example 19, (R,E)-1-(3-(3-(4-(7-((3,5-dimethoxyphenyl)amino)-quinoxalin-2-yl)-1H-pyrazol-1-yl)pyrrolidine-1-carbonyl)-3-fluoro-azetidin-1-yl)-4-(dimethyl-amino)but-2-en-1-one] | 114 | 0.03902 | 50 | 1280 | 0.00339
C=CC(=O)N1CC(C(=O)N2CCC(n3ncc(-c4cnc5ccc(Nc6cc(OC)cc(OC)c6)cc5n4)c3C)CC2)C1 [Example 18, 1-(3-(4-(4-(7-((3,5-dimethoxyphenyl)amino)-quinoxalin-2-yl)-5-methyl-1H-pyrazol-1-yl)piperi-dine-1-carbonyl)azetidin-1-yl)prop-2-en-1-one] | 216 | 0.01462 | 373 | 3660 | 0.00096
COc1cc(Nc2ccc3ncc(-c4ccc(N5CCN(C(=O)C6(F)CN(C(=O)/C=C/CN(C)C)C6)CC5)nc4C)nc3c2)cc(OC)c1 [Example 13, (E)-1-(3-(4-(5-(7-((3,5-dimethoxyphenyl)amino)-quinoxalin-2-yl)-6-methylpyridin-2-yl)-piperazine-1-carbonyl)-3-fluoroazetidin-1-yl)-4-(dimethylamino)but-2-en-1-one] |  | 0.02606 | 1830 |  | 0.00293
C=CC(=O)N1CCC(C(=O)N2CCC(n3cc(-c4cnc5ccc(Nc6cc(OC)cc(OC)c6)cc5n4)cn3)CC2)CC1 [Example 3, 1-(4-(4-(4-(7-((3,5-dimethoxyphenyl)amino)-quinoxalin-2-yl)-1H-pyrazol-1-yl)piperidine-1-carbonyl)piperidin-1-yl)prop-2-en-1-one] | 135 | 0.00166 | 10 | 350 | 
